Values of other authors as cited in US9636407B2, “Caspofungin acetate formulations” (priority 2012, dated 2017).

Experiments:
[1] = CANCIDAS prescribing information
[2] = background statement

In the case of “1-[(4R,5S)-5-[(2-aminoethyl)amino]-N^2-(10,12-dimethyl-1-oxotetradecyl)-4-hydroxy-L-ornithine]-5-[(3R)-3-hydroxy-L-ornithine]pneumocandin B0 diacetate (salt) [caspofungin acetate]”, the “pH of a saturated solution in water” value [1] is given as “about 6.6” and the oral bioavailability [2] is given as “poor”.
